Read-outs that look alike come from different tables or passages of the source.

We go through nine compounds from patent US20240050428A1 (Cullgen (Shanghai), Inc., priority 2020, published 2024).

Test [1] has as its system MV4;11 cells. As to the kind of experiment: Cell viability assay (CellTiter-Glo) in MV4;11 cells, alone or with gilteritinib. In kind it is cell-based. The note with it: Homo sapiens, MV4-11, 72 h, MV4;11 cells, three days, CellTiter-Glo, read-out: MV4.
Test [2] deals with MOLM-13 cells. Description: Cell viability assay (CellTiter-Glo) in MOLM-13 cells, alone or with gilteritinib. Type of test: cell-based. As to conditions: Homo sapiens, MOLM-13, 72 h, MOLM-13 cells, three days, CellTiter-Glo.
[3] abbreviates: compound alone (without gilteritinib), 11 IC50.
Setting [4] is: with gilteritinib 10 nM, 11 IC50 gilteritinib.
The mark [5] stands for this setting: compound alone (without gilteritinib), read-out: MOLM-13 IC50.
The mark [6] stands for this setting: with gilteritinib 20 nM, read-out: MOLM-13 IC50 gilteritinib.

With `O=C1CCC(N2C(=O)c3ccc(NCCCCCCn4cc(-c5cnc6cccc(N7CCNCC7)c6n5)cn4)cc3C2=O)C(=O)N1` (stereo not drawn) [GS-384, 2-(2,6-Dioxopiperidin-3-yl)-5-((6-(4-(8-(piperazin-1-yl)quinoxalin-2-yl)-1H-pyrazol-1-yl)hexyl)amino)isoindoline-1,3-dione], the IC50 in test [1] (setting [3]), in test [1] (setting [4]), in test [2] (setting [5]) and in test [2] (setting [6]) was more than 1000 nM in each case.
Consider `O=C1CCC(N2C(=O)c3ccc(NCCCCCCNc4ncc(-c5cnc6ccccc6n5)s4)cc3C2=O)C(=O)N1` (stereo not drawn) [GS-385, 2-(2,6-Dioxopiperidin-3-yl)-5-((6-((5-(quinoxalin-2-yl)thiazol-2-yl)amino)hexyl)amino)isoindoline-1,3-dione], for which the IC50 in test [1] (setting [3]) lay within 100 to 1000 nM; in test [1] (setting [4]), 10 to 100 nM; in test [2] (setting [5]) it was 100 to 1000 nM; in test [2] (setting [6]), 10 to 100 nM.
As for `O=C1CCC(N2C(=O)c3ccc(NCCCCCCc4ncc(-c5cnc6ccccc6n5)s4)cc3C2=O)C(=O)N1` (stereo not drawn) [GS-386, 2-(2,6-Dioxopiperidin-3-yl)-5-((6-(5-(quinoxalin-2-yl)thiazol-2-yl)hexyl)amino)isoindoline-1,3-dione], the IC50 was 100 to 1000 nM in test [1] (setting [3]), 10 to 100 nM in test [1] (setting [4]), 10 to 100 nM in test [2] (setting [5]) and less than 10 nM in test [2] (setting [6]).
In the case of `COc1ccc2ncc(-c3cnn(CCCCCCNc4ccc5c(c4)C(=O)N(C4CCC(=O)NC4=O)C5=O)c3)nc2c1` (stereo not drawn) [GS-387, 2-(2,6-Dioxopiperidin-3-yl)-5-((6-(4-(7-methoxyquinoxalin-2-yl)-1H-pyrazol-1-yl)hexyl)amino)isoindoline-1,3-dione], the IC50 in test [1] (setting [3]) is 100 to 1000 nM; in test [1] (setting [4]), 10 to 100 nM; in test [2] (setting [5]) it was 100 to 1000 nM; in test [2] (setting [6]) it was less than 10 nM.
Consider `CN1CCC(c2cccc3ncc(-c4cnn(CCCCCCNc5ccc6c(c5)C(=O)N(C5CCC(=O)NC5=O)C6=O)c4)nc23)CC1` (stereo not drawn) [GS-388, 2-(2,6-Dioxopiperidin-3-yl)-5-((6-(4-(8-(1-methylpiperidin-4-yl)quinoxalin-2-yl)-1H-pyrazol-1-yl)hexyl)amino)isoindoline-1,3-dione], for which the IC50 in test [1] (setting [3]), in test [1] (setting [4]), in test [2] (setting [5]) and in test [2] (setting [6]) was more than 1000 nM in each case.
With `O=C1CCC(N2C(=O)c3ccc(NCCCCCCn4cc(-c5cnc6cccc(C7CC7)c6n5)cn4)cc3C2=O)C(=O)N1` (stereo not drawn) [GS-389, 5-((6-(4-(8-Cyclopropylquinoxalin-2-yl)-1H-pyrazol-1-yl)hexyl)amino)-2-(2,6-dioxopiperidin-3-yl)isoindoline-1,3-dione], the IC50 in test [1] (setting [3]) lay within 100 to 1000 nM; in test [1] (setting [4]), 10 to 100 nM; in test [2] (setting [5]) it was 100 to 1000 nM; in test [2] (setting [6]), 10 to 100 nM.
As for `O=C1CCC(N2C(=O)c3ccc(NCCCCCNc4ncc(-c5cnc6ccccc6n5)s4)cc3C2=O)C(=O)N1` (stereo not drawn) [GS-390, 2-(2,6-Dioxopiperidin-3-yl)-5-((5-((5-(quinoxalin-2-yl)thiazol-2-yl)amino)pentyl)amino)isoindoline-1,3-dione], the IC50 in test [1] (setting [3]) was more than 1000 nM; in test [1] (setting [4]) it was 100 to 1000 nM; in test [2] (setting [5]), more than 1000 nM; in test [2] (setting [6]), 100 to 1000 nM.
Turning to `COc1cccc2ncc(-c3cnn(CCCCCCNc4ccc5c(c4)C(=O)N(C4CCC(=O)NC4=O)C5=O)c3)nc12` (stereo not drawn) [GS-391, 2-(2,6-Dioxopiperidin-3-yl)-5-((6-(4-(8-methoxyquinoxalin-2-yl)-1H-pyrazol-1-yl)hexyl)amino)isoindoline-1,3-dione], the IC50 in test [1] (setting [3]) is more than 1000 nM; in test [1] (setting [4]), more than 1000 nM; in test [2] (setting [5]) it was more than 1000 nM; in test [2] (setting [6]), 100 to 1000 nM.
For `O=C1CCC(N2C(=O)c3ccc(NCC4CC(n5cc(-c6cnc7cccc(N8CCOCC8)c7n6)cn5)C4)cc3C2=O)C(=O)N1` (stereo not drawn) [GS-392, 2-(2,6-Dioxopiperidin-3-yl)-5-(((3-(4-(8-morpholinoquinoxalin-2-yl)-1H-pyrazol-1-yl)cyclobutyl)methyl)amino)isoindoline-1,3-dione], the IC50 in test [1] (setting [3]) was more than 1000 nM; in test [1] (setting [4]), 100 to 1000 nM; in test [2] (setting [5]), more than 1000 nM; in test [2] (setting [6]) it was more than 1000 nM.
